The test system of one test is Hepatic tumor (Hep3B). The settings on record: cited from earlier work.
The subject of the next test is Hepatic tumor (SNU423). The settings on record: cited from earlier work.
Another test relates to Gastric tumor (257P). The conditions noted are these: cited from earlier work.
Another test relates to Breast tumor (SKBR3). The settings on record: cited from earlier work.
The next test has as its system Hepatic tumor (SNU182). The conditions noted are these: cited from earlier work.
Another test relates to Melanoma (A375). The settings on record: cited from earlier work.
Test [1] relates to Pancreatic tumor (181/85P). The settings on record: cited from earlier work.
The test system of the next test is Breast tumor (R193). The settings on record: cited from earlier work.
The next test concerns Ovarian tumor (ES-2). The settings on record: cited from earlier work.
The test system of another test is Hs578T tumor cells. Description: Apoptotic killing of Hs578T tumor cells (morphological alternations by microscopy/Hoechst, death factor processing by immunoblot). It counts as cell-based. The procedure:
We have established an in vitro cell model and examined herpes simplex virus-induced apoptotic killing of tumor cells. In the first series of studies, we used a standard inducer of apoptotic killing. A protein kinase inhibitor (i.e., staurosporine) was used. Mammary tumor cells (Hs578T) were cultured and treated with staurosporine (0.1-2 μM) for about 12-18 hours. […] (FIG. 1).
Using Hs578T cells, we next examined whether herpes simplex virus (HSV) can induce apoptotic killing in these tumor cells. Standard methods were used to prepare wild-type HSV-1 (i.e., wtHSV-1). (Blaho et al.: Herpes Simplex Virus: Propagation, Quantification, and Storage. Current Protocols in Microbiology. Wiley & Sons. 14:1-23, 2005). Hs578T cells were infected with wtHSV-1 and examined for tumor cell apoptotic killing. A range of wtHSV-1 concentration was used and we observed that one particle of wtHSV-1 was sufficient to induce apoptotic killing of a tumor cell. Apoptotic killing was evaluated at 24-hour post infection by monitoring morphological alternations and presence of death factor processing as detailed above.
INFECTION OF TUMOR CELLS WITH HSV MUTANTS: Approximately 1×10^6 cells (i.e., tumor cells) were exposed to 10 plaque forming units (PFU) per ml of ΔICP27 virus in 1 ml of 5% NBCS for 1 hour at 37° C. After this adsorption step, the medium was removed and discarded. 3 ml of fresh 5 NBCS was then added. […]
MICROSCOPIC ANALYSIS OF HSV INFECTED TUMOR CELLS: The morphology of HSV infected cells was analyzed by phase contrast and fluorescence microscopy using an Olympus IX70/IX-FLA inverted fluorescence microscope. […]
For visualization of chromatin condensation in live cells, […] Hoechst 33258 (Sigma) per ml was added to the medium and allowed to incubate at 37° C. for 30 min. The percentage (%) of nuclei containing condensed chromatin was determined by dividing the number of brightly stained, small (condensed) nuclei by the total number of nuclei (uncondensed plus condensed) in a particular (640) microscopic field. At least 100 nuclei were counted for each data point. […]
Background: A western blot detects proteins with antibodies after separation by electrophoresis.

In a further test the test system is HEp-2 cells. The test can be described thus: Apoptotic killing of HEp-2 tumor cells (morphological alternations and death factor processing). It counts as cell-based, human. The conditions noted are these: for apoptotic killing (morphological alternations and death factor processing): doxorubicin 10 μM, etoposide 125 μM, data not shown. The source says:
We also examined if a different type of herpes simplex virus (i.e., HSV-2) may induce apoptotic killing of tumor cells. Standard methods were used to prepare wild-type HSV-2 (i.e., wtHSV-2). (Blaho et al.: Herpes Simplex Virus: Propagation, Quantification, and Storage. Current Protocols in Microbiology. Wiley & Sons. 14:1-23, 2005). Tumor cells (human carcinoma HEp-2) were used and infected with wtHSV-2. […] In particular, wtHSV-2 caused both the morphological alternations and death factor processing (data not shown). Thus, infection of Hs578T and HEp-2 cells with wtHSV-1 and wtHSV-2, respectively, leads to substantial apoptotic killing of tumor cells.
We examined tumor cell killing by chemotherapeutic agents. In this study, HEp-2 cells were treated with varying amounts of doxorubicin and etoposide. Apoptotic killing was measured using the method detailed above. […] Thus, these tumor cells were sensitive to chemotherapeutic agents.
INFECTION OF TUMOR CELLS WITH HSV MUTANTS: Approximately 1×10^6 cells (i.e., tumor cells) were exposed to 10 plaque forming units (PFU) per ml of ΔICP27 virus in 1 ml of 5% NBCS for 1 hour at 37° C. After this adsorption step, the medium was removed and discarded. 3 ml of fresh 5 NBCS was then added. Cells were maintained at 37° C. for at least 18 hours.
MICROSCOPIC ANALYSIS OF HSV INFECTED TUMOR CELLS: The morphology of HSV infected cells was analyzed by phase contrast and fluorescence microscopy using an Olympus IX70/IX-FLA inverted fluorescence microscope. Images were acquired using a Sony DKC-5000 digital photo camera linked to a PowerMac workstation and processed through Adobe Photoshop.
For visualization of chromatin condensation in live cells, […] Hoechst 33258 (Sigma) per ml was added to the medium and allowed to incubate at 37° C. for 30 min. The percentage (%) of nuclei containing condensed chromatin was determined by dividing the number of brightly stained, small (condensed) nuclei by the total number of nuclei (uncondensed plus condensed) in a particular (640) microscopic field. At least 100 nuclei were counted for each data point. The percentage (%) of chromatin condensation is represented as the mean±SD of three independent experiments.
IMMUNOBLOT ANALYSIS OF HSV INFECTED TUMOR CELLS: Whole-cell protein extract was prepared using lysis buffer (50 mM Tris/HCl, pH 7.5, 150 mM NaCl, 1% Triton X-100,1% deoxycholate, 0.1% SDS) supplemented with 2 mM PMSF (freshly prepared stock), 1% Translysol, 0.1 mM L-1-chloro-3-(4-tosylamido)-4-phenyl-2-butanone, 0.01 mM L-1-chlor-3-(4-tosylamido)-7-amino-2-heptanon-hydrochloride. Protein concentrations were determined using a modified Bradford protein assay (Bio-Rad Laboratories). […]

For another test, the system named is MCF-7. Description: Apoptotic killing of MCF-7 breast tumor cells. It counts as cell-based. The conditions noted are these: MCF-7 tumor cells.

The text below walks through data of US20140308668A1, “Method of Determining Susceptibility of a Tumor Cell to a Chemotherapeutic Agent: Novel Use of Herpes SImplex Virus” (priority 2008, published 2014).

Structures are written as SMILES.

Regarding `O=c1[nH]cc(F)c(=O)[nH]1` [5-Fluorouracil, 5-fluorouracil], the “Resistant or Sensitive to Chemotherapeutic Agents” value (“Resistant or Sensitive” for short) with Hepatic tumor (Hep3B) is “Resistant”; in the test with Hepatic tumor (SNU423) it was “Resistant”; with Gastric tumor (257P) it was “Resistant”; in the test with Breast tumor (SKBR3), “Sensitive”; with Hepatic tumor (SNU182), “Resistant”; with Melanoma (A375), “Resistant”. Also, the “Resistant or Sensitive” value (in test [1]; in the test on Breast tumor (R193); in the test with Ovarian tumor (ES-2)) was “Sensitive” throughout.

For `N.N.[Cl][Pt][Cl]` [Cisplatin, cisplatin], the “Resistant or Sensitive” value in the test on Hepatic tumor (Hep3B), in the test with Hepatic tumor (SNU423), in the test with Gastric tumor (257P), with Breast tumor (SKBR3), with Hepatic tumor (SNU182) and in the test on Melanoma (A375) was “Resistant” in each case. For the same compound, the “Resistant or Sensitive” value (in test [1]; with Breast tumor (R193); with Ovarian tumor (ES-2)) was “Resistant” each time.

In the case of `C[C@@H]1C[C@@H]([C@H](O)CC2CC(=O)NC(=O)C2)C(=O)[C@@H](C)C1` [Cycloheximide, cycloheximide], the apoptotic effects entry in the test on Hs578T tumor cells (cycloheximide alone, data not shown) is “no apparent apoptotic effects”.

Turning to `COc1cccc2c1C(=O)c1c(O)c3c(c(O)c1C2=O)C[C@@](O)(C(=O)CO)C[C@@H]3O[C@H]1C[C@H](N)[C@H](O)[C@H](C)O1` [Doxorubicin, doxorubicin], the “Resistant or Sensitive” value with Hepatic tumor (Hep3B), with Hepatic tumor (SNU423), with Gastric tumor (257P), in the test with Breast tumor (SKBR3), in the test on Hepatic tumor (SNU182) and with Melanoma (A375) was “Resistant” throughout. Besides, the “Resistant or Sensitive” value (in test [1]; in the test on Breast tumor (R193); with Ovarian tumor (ES-2)) was “Resistant” each time. For the same compound, in the test on HEp-2 cells, the “sensitivity of tumor cells to chemotherapeutic agent” value is “sensitive”. Besides, the “apoptotic killing (morphological alternations and death factor processing)” value in the test with HEp-2 cells was “induce morphological alternations and death factor processing”. The “resistance of tumor cells to chemotherapeutic agent (drug-induced apoptosis)” value in the test with MCF-7 is recorded as “resistant”.

As to `COc1cc([C@@H]2c3cc4c(cc3[C@@H](O[C@@H]3O[C@@H]5CO[C@@H](C)O[C@H]5[C@H](O)[C@H]3O)[C@H]3COC(=O)[C@H]23)OCO4)cc(OC)c1O` [Etoposide, etoposide], the “Resistant or Sensitive” value in the test on Hepatic tumor (Hep3B), in the test on Hepatic tumor (SNU423), with Gastric tumor (257P), with Breast tumor (SKBR3), in the test on Hepatic tumor (SNU182) and in the test with Melanoma (A375) was “Resistant” in each case. The “Resistant or Sensitive” value (in test [1]; with Breast tumor (R193); in the test on Ovarian tumor (ES-2)) was “Resistant” throughout. In the test with HEp-2 cells, the “sensitivity of tumor cells to chemotherapeutic agent” value is listed as “sensitive”. Also, the “apoptotic killing (morphological alternations and death factor processing)” value in the test on HEp-2 cells is “induce morphological alternations and death factor processing”. Besides, the “resistance of tumor cells to chemotherapeutic agent (drug-induced apoptosis)” value in the test with MCF-7 is “resistant”.

In the case of `CC(=O)O[C@H]1C(=O)[C@@]2(C)[C@H]([C@H](OC(=O)c3ccccc3)[C@]3(O)C[C@H](OC(=O)[C@H](O)[C@@H](NC(=O)c4ccccc4)c4ccccc4)C(C)=C1C3(C)C)[C@]1(OC(C)=O)CO[C@@H]1C[C@@H]2O` [Paclitaxel, paclitaxel], the “Resistant or Sensitive” value with Hepatic tumor (Hep3B) is “Resistant”; in the test on Hepatic tumor (SNU423), “Sensitive”; in the test with Gastric tumor (257P), “Sensitive”; in the test with Breast tumor (SKBR3), “Sensitive”; with Hepatic tumor (SNU182), “Resistant”; in the test on Melanoma (A375) it was “Sensitive”. In addition, the entries for the “Resistant or Sensitive” value (in test [1]; with Breast tumor (R193); in the test on Ovarian tumor (ES-2)) were “Sensitive”, “Sensitive” and “Resistant”, respectively.

With `CN[C@@H]1C[C@H]2O[C@@](C)([C@@H]1OC)n1c3ccccc3c3c4c(c5c6ccccc6n2c5c31)C(=O)NC4` [Staurosporine, staurosporine], the “Death Factor Processing Poly(ADP-ribose) Polymerase, Procaspase 3, and DNA Fragmentation Factor-45” value in the test on Hs578T tumor cells (immunoblot) was “drastic death factor processing”. Moreover, the “chromatin condensation (percentage of nuclei containing condensed chromatin)” value in the test with Hs578T tumor cells (staurosporine 0.1-2 μM, about 12-18 hours, mean±SD of three independent experiments) was determined as 86±14%.
